Key:
[1] = tested on: cerebral ischemic hypoxia mice; experiment: Cerebral circulatory disturbance hypoxia (common carotid artery and vagus ligation), survival; assay type: in vivo, NIH mice; conditions: group B: 2.0 mg/kg hypodermic injection once a day for 5 days
Text: (§1) Five test groups were designed for this test, namely the negative control group (A), the positive control medicine group (B), and three groups administrated with the test item at the high (C), medium (D), and low (E) dosage levels. SPF class NIH mice were randomly distributed into 12 to 14 pieces in each group. The design of experiment was described in Table 15.
Mice in negative control group (A) were topically applied with vegetable oil, whereas those in positive control group (B) were administrated with Nimodipine by hypodermic injection. Mice in groups (C), (D), and (E) received the test item through skin administration. All the five groups received the corresponding item once a day for 5 consecutive days. 50 minutes after the final administration of the test item, and 30 minutes after the final administration of Nimodipine, the mice were given an intraperitoneal injection of Urethane (8%, 0.8 g/kg.bw, 10 mL/kg.bw) as anesthetics. The mice then underwent a separation of the left and right common carotid artery as well as the vagus, and were separately ligated with a No. 4 suture. Survival duration for the mice were immediately recorded with a stopwatch, with results as follows: […]

[2] = tested on: methemoglobinemia model mice (sodium nitrite); experiment: Sodium nitrite methemoglobinemia model, survival duration; assay type: in vivo, NIH mice; conditions: male quasi; for Survival Duration: observed 90 min; for Prolonged Percentage: vs negative control
Text: This test was designed according to the relevant provisions of The Management of Medicine Registration issued by the State Food and Drug Administration (SFDA) of the People's Republic of China, and The Assemble of Guiding Principle of Pre-clinical Research on New Drugs (in Western Medicine) from the Bureau of Drug Administration, Ministry of Public Health, People's Republic of China. Five test groups were designed for this test, namely the negative control group (A), the positive control medicine group (B), and three groups administrated with the test item at the high (C), medium (D), and low (E) dosage levels. SPF class NIH mice were randomly distributed into 10-12 pieces (male quasi) in each group. The design of experiment was described in Table 5.
In establishing the methemoglobinemia model, a 2% sodium nitrite was injected into abdomen of the mice (male mice: 240 mg/kg, 12 mL/kg; female mice: 260 mg/kg, 13 mL/kg). Stopwatch was immediately started to record time and simultaneously, vegetable oil or the test item was applied to the mice of the respective group. Mice in the positive control group I (group B-I) were administered with Nimodipine through gastric gavage an hour before model was established, while those in the positive control group II were administered Nimodipine through gastric gavage immediately upon the setting up of the model. […]

[3] = tested on: decapitated mice (acute cerebral ischemic hypoxia); experiment: Global cerebral ischemia (decapitation method), formal test; assay type: in vivo, NIH mice; conditions: group B: 2.0 mg/kg hypodermic injection once a day for 2 days
Text: Five test groups were designed for this test, namely the negative control group (A), the positive control medicine group (B), and three groups administrated with the test item at the high (C), medium (D), and low (E) dosage levels. SPF class NIH mice were randomly distributed into 14 pieces in each group. The design of experiment was described in Table 9. Mice in negative control group (A) were topically applied with vegetable oil, whereas those in positive control group (B) were administrated with Nimodipine by hypodermic injection once a day for 2 consecutive days. Mice in groups (C), (D), and (E) received the test item through skin administration once a day for 7 consecutive days. 60 minutes after the final administration of the test item and vegetable oil to the mice of the corresponding groups, and 30 minutes after the final administration of Nimodipine to the mice of the positive medicine control group, the heads of mice were rapidly severed from the back of ear root with a pair of sharp scissors (decapitation method). The gasping duration and gasping frequency were immediately recorded with a stopwatch The results are shown as follows: […]

[4] = tested on: mice in low-pressure hypoxic environment; experiment: Hypobaric hypoxia survival test; assay type: in vivo, NIH mice; conditions: group B: 26 mg/kg gastric gavage, male quasi
Protocol: as §1, with “12” for “12 to 14”, “13.” for “15.”
One hour after administrating the positive control medicine, and 30 minutes after applying the test item or the negative control in the corresponding groups, the mice (6 mice/batch, 2 batches/group) were put in consecutive order into the vacuum drier connected with a suction (built in soda lime to absorb CO2 and water). The suction process was started until the air pressure dropped to a certain negative pressure (Male mouse: 580 mmHg; female mouse: 600 mmHg). Then, stopwatch was used to record the survival duration and the number of survivals in each group within 60 minutes.

[5] = tested on: sodium nitrite induced memory consolidated handicap mice; experiment: Memory consolidated handicap model, water maze test; assay type: in vivo, NIH mice; conditions: group B: 1.04 mg/kg intramuscular injection
Text: […], a cerebral hypoxic agent, was used to establish this memory consolidated handicap model. Due to its strong oxidation property, it could convert low value iron in the hemoglobin into high value iron and thus affects the hemoglobin to lose its anti-oxidative ability, resulting in Methemoglobinemia disease. Brain tissue is the most sensitive tissue to hypoxia and it would be injured once it experienced memory consolidated handicap. Therefore, in the establishment of this model, the applying of […] would affect the space recognition ability of the mice. This test was designed according to the relevant provisions of The Management of Medicine Registration issued by the State Food and Drug Administration (SFDA) of the People's Republic of China, and The Assemble of Guiding Principle of Pre-clinical Research on New Drugs (in Western Medicine) from the Bureau of Drug Administration, Ministry of Public Health, People's Republic of China. Five test groups were designed for this test, namely the negative control group (A), the positive control medicine group (B), and three groups administrated with the test item at the high (C), medium (D), and low (E) dosage levels. […] The design of experiment was described in Table 11. Each group of mice was continuously trained for 5 days, once in the morning and once in the afternoon, for 60 seconds in each training session. Before the training session on the afternoon of the 5th day, sodium nitrite was administered at dose level of 160 mg/kg to the mice through hypodermic injection to induce the mice to experience memory consolidated handicap symptom. 30 minutes after medication, the water maze test was carried out. The aforesaid test was then repeated on the following morning.

[6] = tested on: sodium nitrite induced hypoxia model mice; experiment: Study on blood pH and blood hypoxia (sodium nitrite induced hypoxia animal model); assay type: in vivo, SD mice; conditions: 10 days after
Protocol: In this study regarding oxygen carrying ability of red blood cells, the test item was the formulation as described in Mixture 3 listed in Table 1 (the formulation). First of all, healthy SD mice were fed with sodium nitrite (17 mg/kg) by gastric gavage for 7 consecutive days to induce the hypoxia animal model. The mice were then randomly distributed into 8 groups: (A) normal mice blank control group, (B) normal mice applied with the formulation group (82.5 μL/kg), (C) model mice applied with vitamin C (62.5 mg/kg) control group, (D) model mice applied with vitamin E (104 mg/kg) control group, (E) model mice applied with vegetable oil (82.5 μL/kg) control group, (F) model mice applied with high dose of the formulation (330 μL/kg), (G) model mice applied with medium dose of the formulation (165 μL/kg), (H) model mice applied with low dose of the formulation (82.5 μL/kg). There were 12 mice for each group. On the 7th day of hypoxia model induction, the formulation was applied topically on the mice in the formulation groups (B, F, G and H), and equal amount of vegetable oil was also topically applied on the mice in the group (E). Vitamins C and E were administrated by gastric gavage to mice in groups (C) and (D) respectively. 10 days after the application of the corresponding items, blood samples were taken in which blood pH, arterial oxygen partial pressure (pO2), and blood oxygen were tested, and the results are as listed below: […]

[7] = group B-I: 62 mg/kg gastric gavage an hour before model
[8] = group B-II: 62 mg/kg gastric gavage immediately upon model
[9] = group C: hypoxia model mice, 62.5 mg/kg gastric gavage
[10] = group D: hypoxia model mice, 104 mg/kg gastric gavage

For `COCCOC(=O)C1=C(C)NC(C)=C(C(=O)OC(C)C)C1c1cccc([N+](=O)[O-])c1` (stereo not shown) [Nimodipine], the “Survival Duration” value [1] was 55.4 ± 15.2 min, the “Prolonged Percentage” value ([1]; vs negative control) was 1224.3% and the “Survival Duration” value [2, 7] was 48.44 ± 21.36 min. For the same compound, the “Prolonged Percentage” value [2, 7] was 56.26%, the “Survival Duration” value [2, 8] was 39.10 ± 17.30 min and the “Prolonged Percentage” value [2, 8] was 26.24%. For the same compound, the “Gasping Duration, Time” value [3] was 24.6 ± 4.6 s, the “Gasping Frequency, Times” value [3] was 14.5 ± 3.6 Times and the “Gasping Duration, Extension Rate” value ([3]; vs negative control) was 28.6%. For the same compound, the “Gasping Frequency, Increment Rate” value ([3]; vs negative control) was 25.6%.

With `CC(C)NCC(O)COc1cccc2ccccc12` (stereo not shown) [Propranolol] the “Prolonged Percentage” value ([4]; vs negative control) was 108.4%, the “Survival Duration” value ([4]; within 60 minutes) was 50.40 ± 16.33 min and the “Survival Percentage” value ([4]; within 60 minutes) was 41.7%.

With `O=C1O[C@H]([C@@H](O)CO)C(O)=C1O` [Vitamin C, vitamin C] the “Time to Reach the Platform” value ([5]; Day 5, Afternoon (after sodium nitrite 160 mg/kg)) was 46.9 ± 15.5 s, the “Time to Reach the Platform” value ([5]; Day 5, Morning (before sodium nitrite)) was 42.0 ± 24.3 s and the “Time to Reach the Platform” value ([5]; Day 6, Morning) was 41.7 ± 21.1 s. For the same compound, the Blood oxygen [6, 9] was 93.6 ± 1.3 %, the “Blood pH” value [6, 9] was 7.420 ± 0.036 and the Oxygen partial pressure [6, 9] was 10.51 ± 0.96 kPa.

For vitamin E, the Blood oxygen [6, 10] was 94.0 ± 2.1 %, the “Blood pH” value [6, 10] was 7.455 ± 0.049 and the Oxygen partial pressure [6, 10] was 10.76 ± 2.14 kPa.

From patent US20100196521A1, “Formulation for the treatment of hypoxia and related disorders” (priority 2009, published 2010)
